The values below come from US20250145642A1, “BICYCLIC HETEROARENES AND METHODS OF THEIR USE” (Kineta, Inc., priority 2021, published 2025).

In the first assay the test system is FAB1 TDP-43 yeast strain. The experiment in a line: Propidium iodide viability assay, FAB1 TDP-43 yeast strain. The class given is cell-based. The note with it: FAB1 TDP-43 yeast model. An excerpt:
(§1) Generation of TDP-43 yeast model expressing human PIKfyve. Human PIKFYVE (“entry clone”) was cloned into pAG416GPDccdB (“destination vector”) according to standard Gateway cloning protocols (Invitrogen, Life Technologies). The resulting pAG416GPD-PIKFYVE plasmids were amplified in E. coli and plasmid identity confirmed by restriction digest and Sanger sequencing. Lithium acetate/polyethylene glycol-based transformation was used to introduce the above PIKFYVE plasmid into a BY4741 yeast strain auxotrophic for the ura3 gene and deleted for two transcription factors that regulate the xenobiotic efflux pumps, a major efflux pump, and FAB1, the yeast ortholog of PIKFYVE (MATa, snq2::KILeu2; pdr3::KIura3;pdr1::NATMX; fab1::G418^R, his 3;leu2;ura3;met15;LYS2+) (FIG. 2). Transformed yeast were plated on solid agar plates with complete synthetic media lacking uracil (CSM-ura) and containing 2% glucose. Individual colonies harboring the control or PIKFYVE TDP-43 plasmids were recovered. A plasmid containing wild-type TDP-43 under the transcriptional control of the GAL1 promoter and containing the hygromycin-resistance gene as a selectable marker was transformed into the fab1::G418^R pAG416GPD-PIKFYVE yeast strain (FIG. 1). Transformed yeast were plated on CSM-ura containing 2% glucose and […] G418 after overnight recovery in media lacking antibiotic. Multiple independent isolates were further evaluated for cytotoxicity and TDP-43 expression levels.
(§2) Viability Assay. A control yeast strain with the wild-type yeast FAB1 gene and TDP-43 (“FAB1 TDP-43”, carries empty pAG416 plasmid), and the “PIKFYVE TDP-43” yeast strain, were assessed for toxicity using a propidium iodide viability assay. Both yeast strains were transferred from solid CSM-ura/2% glucose agar plates into 3 mL of liquid CSM-ura/2% glucose media for 6-8 hours at 30° C. with aeration. Yeast cultures were then diluted to an optical density at 600 nm wavelength (OD600) of 0.005 in 3 mL of CSM-ura/2% raffinose and grown overnight at 30° C. with aeration to an OD600 of 0.3-0.8. Log-phase overnight cultures were diluted to OD600 of 0.005 in CSM-ura containing either 2% raffinose or galactose and 150 μL dispensed into each well of a flat bottom 96-well plates. Compounds formulated in 100% dimethyl sulfoxide (DMSO) were serially diluted in DMSO and 1.5 μL diluted compound transferred to the 96-well plates using a multichannel pipet. Wells containing DMSO alone were also evaluated as controls for compound effects. Tested concentrations ranged from 15 μM to 0.11 μM. Cultures were immediately mixed to ensure compound distribution and covered plates incubated at 30° C. for 24 hours in a stationary, humified incubator.
(§3) Upon the completion of incubation, cultures were assayed for viability using propidium iodide (PI) to stain for dead/dying cells. A working solution of PI was made where, for each plate, 1 μL of 10 mM PI was added to 10 mL of CSM-ura (raffinose or galactose). The final PI solution (50 μL/well) was dispensed into each well of a new round bottom 96-well plate. The overnight 96-well assay plate was then mixed with a multichannel pipet and 50 μL transferred to the PI-containing plate. This plate was then incubated for 30 minutes at 30° C. in the dark. A benchtop flow cytometer (Miltenyi MACSquant) was then used to assess red fluorescence (B2 channel), forward scatter, and side scatter (with following settings: gentle mix, high flow rate, fast measurement, 10,000 events). Intensity histograms were then gated for “PI-positive” or “PI-negative” using the raffinose and galactose cultures treated with DMSO as controls. The DMSO controls for raffinose or galactose-containing cultures were used to determine the window of increased cell death and this difference set to 100. All compounds were similarly gated and then compared to this maximal window to establish the percent reduction in PI-positive cells.
Turning to `N#Cc1cc(N2CCOCC2)n2nc(-c3ccncc3)cc2n1`, the “FAB1 TDP-43 (active/inactive)” value is “Inactive”.

The subject of the next assay is PIKFYVE TDP-43 yeast strain. Briefly: Propidium iodide viability assay, PIKFYVE TDP-43 yeast strain. In kind it is cell-based. Particulars: PIKFYVE TDP-43 yeast model.
Excerpt: as §1, §2, §3
Biochemical and Efficacy Assays. […]
Regarding `N#Cc1cc(N2CCOCC2)n2nc(-c3ccncc3)cc2n1`, the “PIKfyve TDP-43 (active/inactive)” value was “Inactive”.

The assay is the same for the next values; noted with them: Saccharomyces cerevisiae; PIKFYVE TDP-43 yeast strain, reduction in PI-positive cells, highest concentration 15 μM; read-out: BIKFYVE TDP-43 (IC50).
`c1ccc(N2CCc3c(OCc4cccnc4)nc(N4CCOCC4)nc32)cc1` [drawing 539]: the IC50 (commonly the point on the concentration scale where inhibition reaches its midpoint) turned out to be 2680 nM.
On to `Cc1cccc(/C=N/Nc2nc(N3CCOCC3)c3ncccc3n2)c1`, for which the IC50 worked out at 8210 nM.
Same read-out and setting: to `c1ccc(-c2cccc(-c3cc(N4CCOCC4)n4nc(-c5ccncc5)cc4n3)n2)cc1` belongs 230 nM; to `Oc1cc(-c2ccccc2)nn1-c1cc(N2CCOCC2)n2nc(-c3ccncc3)nc2n1`, 693 nM.
Still for that read-out and setting: to `Cc1cccc(/C=N/Nc2nc(N3CCOCC3)c3nc(-c4ccncc4)n(C)c3n2)c1` belongs 4720 nM.
Same read-out and setting: to `Fc1cccc(-c2ccnn2-c2nc(N3CCOCC3)c3ncccc3n2)c1` belongs 5750 nM; to `Oc1cc(C2CCOCC2)nn1-c1cc(N2CCOCC2)n2nc(-c3ccncc3)cc2n1`, 9100 nM.
In the case of `Cc1cccc(/C=N/Nc2cc(N3CCOCC3)nc(OCCc3ccc(CN)cc3)n2)c1`, the concentration for half-maximal inhibition (IC50) was 1120 nM.
Still for that read-out and setting: then `c1ccc(-c2ccnc(-c3cc(N4CCOCC4)nc(OCc4ccncc4)n3)n2)cc1`, with 1450 nM.

In the next assay the target is full-length human PIKFYVE (N-terminal GST-fusion) (Homo sapiens (Human), UniProt Q9Y2I7, L932S/Q1183K/Q995L/S1033A/S696N/T998S). Briefly: PIKfyve biochemical assay (ADP-Glo Kinase assay, Carna Biosciences). Particulars: ADP-Glo, full-length human GST-PIKFYVE, 10 μM to 3 nM; read-out: hPIKfyve IC50. The method, boiled down: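 Baculovirus-expressed, glutathione-purified GST-tagged full-length human PIKFYVE (S696N/L932S/Q995L/T998S/S1033A/Q1183K) reacted with substrate and ATP in 50 mM MOPS, 1 mM DTT, pH 7.2, 1 h at room temperature. ADP formed read by ADP-Glo luminescence.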
Chain of full-length human PIKFYVE (N-terminal GST-fusion) (Q9Y2I7 whole entry S696N/L932S/Q995L/T998S/S1033A/Q1183K, the tested form may be a part): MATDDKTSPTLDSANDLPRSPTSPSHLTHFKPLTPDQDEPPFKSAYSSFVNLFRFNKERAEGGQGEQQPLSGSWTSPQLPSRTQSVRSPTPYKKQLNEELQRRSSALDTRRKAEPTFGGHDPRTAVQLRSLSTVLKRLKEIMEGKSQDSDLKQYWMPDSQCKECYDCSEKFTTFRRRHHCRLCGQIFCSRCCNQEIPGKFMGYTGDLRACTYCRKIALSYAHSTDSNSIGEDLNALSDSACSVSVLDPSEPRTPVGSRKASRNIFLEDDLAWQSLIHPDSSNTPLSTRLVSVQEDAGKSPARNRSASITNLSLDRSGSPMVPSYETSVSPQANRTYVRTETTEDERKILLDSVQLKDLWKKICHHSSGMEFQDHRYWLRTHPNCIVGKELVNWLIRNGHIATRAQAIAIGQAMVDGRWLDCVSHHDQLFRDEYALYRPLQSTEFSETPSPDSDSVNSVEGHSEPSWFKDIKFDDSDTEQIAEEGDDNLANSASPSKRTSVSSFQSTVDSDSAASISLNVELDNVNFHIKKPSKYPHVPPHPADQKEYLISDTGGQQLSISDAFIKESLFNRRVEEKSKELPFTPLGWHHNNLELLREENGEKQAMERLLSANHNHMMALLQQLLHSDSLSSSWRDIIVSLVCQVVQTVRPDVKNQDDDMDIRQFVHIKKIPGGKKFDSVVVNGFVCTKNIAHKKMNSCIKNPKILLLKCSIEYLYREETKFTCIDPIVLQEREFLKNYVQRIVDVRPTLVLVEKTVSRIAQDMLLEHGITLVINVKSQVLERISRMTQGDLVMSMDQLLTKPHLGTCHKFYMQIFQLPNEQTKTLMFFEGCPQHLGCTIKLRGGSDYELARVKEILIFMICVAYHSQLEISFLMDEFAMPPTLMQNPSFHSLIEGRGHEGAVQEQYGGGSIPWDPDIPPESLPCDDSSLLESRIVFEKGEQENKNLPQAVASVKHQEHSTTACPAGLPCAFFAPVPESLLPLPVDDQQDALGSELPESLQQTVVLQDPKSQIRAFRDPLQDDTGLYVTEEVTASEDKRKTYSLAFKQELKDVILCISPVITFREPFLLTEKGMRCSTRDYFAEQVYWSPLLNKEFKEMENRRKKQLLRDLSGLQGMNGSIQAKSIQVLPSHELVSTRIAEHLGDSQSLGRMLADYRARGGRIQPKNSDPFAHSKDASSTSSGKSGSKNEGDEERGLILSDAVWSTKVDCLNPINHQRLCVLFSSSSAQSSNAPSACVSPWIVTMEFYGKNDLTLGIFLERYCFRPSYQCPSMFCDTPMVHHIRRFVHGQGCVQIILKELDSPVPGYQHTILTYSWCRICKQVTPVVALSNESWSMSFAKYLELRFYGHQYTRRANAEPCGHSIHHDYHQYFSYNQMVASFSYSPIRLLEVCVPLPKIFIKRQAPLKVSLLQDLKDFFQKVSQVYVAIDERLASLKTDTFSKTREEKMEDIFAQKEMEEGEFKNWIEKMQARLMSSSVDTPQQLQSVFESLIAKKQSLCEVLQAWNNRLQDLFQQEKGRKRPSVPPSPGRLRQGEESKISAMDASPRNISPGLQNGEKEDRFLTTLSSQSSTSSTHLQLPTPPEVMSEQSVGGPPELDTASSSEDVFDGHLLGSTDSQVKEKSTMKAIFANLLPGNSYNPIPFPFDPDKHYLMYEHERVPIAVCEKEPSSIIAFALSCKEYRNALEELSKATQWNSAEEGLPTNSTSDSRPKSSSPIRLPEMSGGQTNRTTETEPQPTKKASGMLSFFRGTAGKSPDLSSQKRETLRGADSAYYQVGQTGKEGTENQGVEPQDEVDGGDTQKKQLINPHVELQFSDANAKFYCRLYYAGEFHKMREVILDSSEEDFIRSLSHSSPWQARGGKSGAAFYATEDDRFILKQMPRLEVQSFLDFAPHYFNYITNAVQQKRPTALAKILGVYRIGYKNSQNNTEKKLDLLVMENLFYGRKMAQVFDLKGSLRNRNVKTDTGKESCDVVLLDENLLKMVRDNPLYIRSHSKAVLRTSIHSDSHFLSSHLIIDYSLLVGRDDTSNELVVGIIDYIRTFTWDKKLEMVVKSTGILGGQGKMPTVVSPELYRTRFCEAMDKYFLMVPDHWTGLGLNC
Take `CC(C)(C)OC(=O)N1CC(c2nc(N3CCOCC3)nc3c2CCN3c2ccccc2)C1` [Compound 113, tert-butyl 3-(2-morpholino-7-phenyl-6,7-dihydro-5H-pyrrolo[2,3-d]pyrimidin-4-yl)azetidine-1-carboxylate]: the IC50 is less than 10 nM.
As for `c1ccc(N2CCc3c(C4CCOC4)nc(N4CCOCC4)nc32)cc1` (stereo not drawn) [Compound 87, 4-(7-phenyl-4-(tetrahydrofuran-3-yl)-6,7-dihydro-5H-pyrrolo[2,3-d]pyrimidin-2-yl)morpholine], the IC50 fell in the range of 10 to 100 nM.
On the same count and under the same terms, then `c1ccc(-c2nccc(-c3nc(N4CCOCC4)nc4c3CCN4c3ccncc3)n2)cc1` [Compound 125, 4-(4-(2-phenylpyrimidin-4-yl)-7-(pyridin-4-yl)-6,7-dihydro-5H-pyrrolo[2,3-d]pyrimidin-2-yl)morpholine], with 10 to 100 nM.
Still for that read-out and setting: to `c1ccc(N2CCc3c(-c4ccnnc4)nc(N4CCOCC4)nc32)cc1` [Compound 99, 4-(7-phenyl-4-(pyridazin-4-yl)-6,7-dihydro-5H-pyrrolo[2,3-d]pyrimidin-2-yl)morpholine] belongs 10 to 100 nM; to `c1ccc(-n2cnc3c(-c4ccncc4)nc(N4CCOCC4)nc32)cc1` [Compound 128, 4-(9-phenyl-6-(pyridin-4-yl)-9H-purin-2-yl)morpholine], 10 to 100 nM.
Same read-out and setting: then `COc1cccc(N2CCc3c(OCC4CCCN(C)C4)nc(N4CCOCC4)nc32)c1` (stereo not drawn) [Compound 13, 4-(7-(3-methoxyphenyl)-4-((1-methylpiperidin-3-yl)methoxy)-6,7-dihydro-5H-pyrrolo[2,3-d]pyrimidin-2-yl)morpholine], with 10 to 100 nM; and `c1cncc(N2CCc3c(-c4ccncc4)nc(N4CCOCC4)nc32)c1` [Compound 105, 4-(7-(pyridin-3-yl)-4-(pyridin-4-yl)-6,7-dihydro-5H-pyrrolo[2,3-d]pyrimidin-2-yl)morpholine], with 10 to 100 nM; and `c1ccc(N2CCc3c(COc4cccnc4)nc(N4CCOCC4)nc32)cc1` [Compound 59, 4-(7-phenyl-4-((pyridin-3-yloxy)methyl)-6,7-dihydro-6H-pyrrolo[2,3-d]pyrimidin-2-yl)morpholine], with 100 to 1000 nM.
With `c1ccc(N2CCc3c(N4CCOCC4)nc(N4CCOCC4)nc32)cc1` [Compound 78, 4,4′-(7-phenyl-6,7-dihydro-5H-pyrrolo[2,3-d]pyrimidine-2,4-diyl)dimorpholine], the IC50 was in the range of 10 to 100 nM.
On the same count and under the same terms, then `c1ccc(N2CCc3c(-c4ccccn4)nc(N4CCOCC4)nc32)cc1` [Compound 90, 4-(7-phenyl-4-(pyridin-2-yl)-6,7-dihydro-5H-pyrrolo[2,3-d]pyrimidin-2-yl)morpholine], with 100 to 1000 nM.
Regarding `CN1CCCC(COc2nc(N3CCOCC3)nc3c2CCN3CC(C)(C)O)C1` (stereo not drawn) [Compound 40, 2-methyl-1-(4-((1-methylpiperidin-3-yl)methoxy)-2-morpholino-6H-pyrrolo[2,3-d]pyrimidin-7(6H)-yl)propan-2-ol], the IC50 was greater than 10000 nM.
For `c1ccc(N2CCc3c(COCc4ccccn4)nc(N4CCOCC4)nc32)cc1` [Compound 62, 4-(7-phenyl-4-((pyridin-2-ylmethoxy)methyl)-6,7-dihydro-5H-pyrrolo[2,3-d]pyrimidin-2-yl)morpholine], the IC50 lay within 10 to 100 nM.
On the same count and under the same terms, to `CC(=O)N1CCC(c2nc(N3CCOCC3)nc3c2CCN3c2ccccc2)CC1` [Compound 120, 1-(4-(2-morpholino-7-phenyl-6,7-dihydro-5H-pyrrolo[2,3-d]pyrimidin-4-yl)piperidin-1-yl)ethan-1-one] belongs 10 to 100 nM.
Same read-out and setting: then `CN1CCC(OCc2nc(N3CCOCC3)nc3c2CCN3c2cccnc2)C1` (stereo not drawn) [Compound 66, 4-(4-((1-methylpyrrolidin-3-yloxy)methyl)-7-(pyridin-3-yl)-6,7-dihydro-5H-pyrrolo[2,3-d]pyrimidin-2-yl)morpholine], with 1000 to 10000 nM.
Same read-out and setting: then `Oc1ccc[n+](Cc2nc(N3CCOCC3)nc3c2CCN3c2ccccc2)c1` [Compound 60, 5-hydroxy-1-((2-morpholino-7-phenyl-6,7-dihydro-5H-pyrrolo[2,3-d]pyrimidin-4-yl)methyl)pyridin-1-ium-3-ylium], with 100 to 1000 nM; and `Cn1nccc1-c1c[nH]c2c(-c3ccncc3)nc(N3CCOCC3)nc12` [Compound 141, 4-(7-(1-methyl-1H-pyrazol-5-yl)-4-(pyridin-4-yl)-5H-pyrrolo[3,2-d]pyrimidin-2-yl)morpholine], with 10 to 100 nM; and “4-(7-(3-fluorophenyl)-4-(pyridin-3-ylmethoxy)-6,7-dihydro-5H-pyrrolo[2,3-d]pyrimidin-2-yl)morpholine [Compound 3]”, with 100 to 1000 nM.
`O=C(C1CC1)N1CCC(c2nc(N3CCOCC3)nc3c2CCN3c2ccccc2)C1` (stereo not drawn) [Compound 118, cyclopropyl(3-(2-morpholino-7-phenyl-6,7-dihydro-5H-pyrrolo[2,3-d]pyrimidin-4-yl)pyrrolidin-1-yl)methanone]: the IC50 is less than 10 nM.
Still for that read-out and setting: to `c1cncc(N2CCc3c(OCC4CCCO4)nc(N4CCOCC4)nc32)c1` (stereo not drawn) [Compound 23, 4-(7-(pyridin-3-yl)-4-((tetrahydrofuran-2-yl)methoxy)-6,7-dihydro-6H-pyrrolo[2,3-d]pyrimidin-2-yl)morpholine] belongs 100 to 1000 nM; to `c1ccc(N2CCc3c(C4CCNCC4)nc(N4CCOCC4)nc32)cc1` [Compound 111, 4-(7-phenyl-4-(piperidin-4-yl)-6,7-dihydro-5H-pyrrolo[2,3-d]pyrimidin-2-yl)morpholine], 100 to 1000 nM; to `O=C(Cc1ccccc1)N1CCc2c(-c3ccncc3)nc(N3CCOCC3)nc21` [Compound 73, 1-(2-morpholino-4-(pyridin-4-yl)-5,6-dihydro-7H-pyrrolo[2,3-d]pyrimidin-7-yl)-2-phenylethan-1-one], 10 to 100 nM.

The assay is the same for the next values; noted with them: values plotted in FIG. 7; read-out: PIKFYVE Biochemistry (IC50).
With `Fc1cccc(-c2ccnn2-c2nc(N3CCOCC3)c3ncccc3n2)c1`, the half-inhibitory concentration (IC50) was greater than 10000 nM.
